Results taken from article PMC7317746 (Environmental and Molecular Mutagenesis, 2020).
Like-named read-outs stand apart in the source and are kept apart here.

Columns and labels:
male Sprague Dawley rats [1] = assay: Pig‐a assay; assay type: in vivo, rat
male Sprague Dawley rats [2] = conditions: 1-Month Study, 1,000 mg/kg/day
[3] = 1-Month Study, 1,000 mg/kg/day, Day 29
[4] = 1-Month Study, 1,000 mg/kg/day, Day -1 (pre-treatment)
[5] = 2-Week Study, 250 mg/kg/day Days 1-15, Day 16
[6] = 2-Week Study, 500 mg/kg/day Days 1-15, Day 16
[7] = 2-Week Study, 1,000 mg/kg/day Days 1-15, Day 16
[8] = 3-Day Study, 500 mg/kg/day Days 1-3, Day 15
[9] = 3-Day Study, 500 mg/kg/day Days 1-3, Day 30
[10] = 3-Day Study, 500 mg/kg/day Days 1-3, Day 45
[11] = 3-Day Study, 500 mg/kg/day, Day -4 (pre-treatment)
[12] = 3-Day Study, 1,000 mg/kg/day Days 1-3, Day 15
[13] = 3-Day Study, 1,000 mg/kg/day Days 1-3, Day 30
[14] = 3-Day Study, 1,000 mg/kg/day Days 1-3, Day 45
[15] = 3-Day Study, 1,000 mg/kg/day, Day -4 (pre-treatment)
[16] = 3-Day Study, 2,000 mg/kg/day Days 1-3, Day 15
[17] = 3-Day Study, 2,000 mg/kg/day Days 1-3, Day 30
[18] = 3-Day Study, 2,000 mg/kg/day Days 1-3, Day 45
[19] = 3-Day Study, 2,000 mg/kg/day, Day -4 (pre-treatment)

## CC(=O)Nc1ccc(O)cc1 [acetaminophen, Acetaminophen]
Male Sprague Dawley rats [1]; 1-Month Study, 1,000 mg/kg/day, Day 15
  Number of CD59‐Neg RETs per 10^6 RETs mean ± SD: 1.6 ± 1.5 per 10^6 RETs
Male Sprague Dawley rats [1]; [3]
  %RETs mean ± SD: 2.4 ± 0.9%
  Number of CD59‐Neg RBCs per 10^6 RBCs mean ± SD: 1.6 ± 1.6 per 10^6 RBCs
  Number of CD59‐Neg RETs per 10^6 RETs mean ± SD: 4.5 ± 5.9 per 10^6 RETs
Male Sprague Dawley rats [1]; [4]
  %RETs mean ± SD: 4.6 ± 0.6%
  Number of CD59‐Neg RBCs per 10^6 RBCs mean ± SD: 0.5 ± 0.3 per 10^6 RBCs
  Number of CD59‐Neg RETs per 10^6 RETs mean ± SD: 0.7 ± 0.7 per 10^6 RETs
Male Sprague Dawley rats [1]; [5]
  %RETs mean ± SD: 2.7 ± 1.0%
  Number of CD59‐Neg RBCs per 10^6 RBCs mean ± SD: 0.7 ± 0.3 per 10^6 RBCs
  Number of CD59‐Neg RETs per 10^6 RETs mean ± SD: 1.4 ± 1.1 per 10^6 RETs
Male Sprague Dawley rats [1]; [6]
  %RETs mean ± SD: 2.4 ± 0.8 %
  Number of CD59‐Neg RBCs per 10^6 RBCs mean ± SD: 1.1 ± 1.7 per 10^6 RBCs
  Number of CD59‐Neg RETs per 10^6 RETs mean ± SD: 0.4 ± 0.4 per 10^6 RETs
Male Sprague Dawley rats [1]; [7]
  %RETs mean ± SD: 3.4 ± 0.7%
  Number of CD59‐Neg RBCs per 10^6 RBCs mean ± SD: 0.5 ± 0.3 per 10^6 RBCs
  Number of CD59‐Neg RETs per 10^6 RETs mean ± SD: 1.1 ± 0.9 per 10^6 RETs
Male Sprague Dawley rats [1]; [8]
  %RETs mean ± SD: 3.6 ± 0.6%
  Number of CD59‐Neg RBCs per 10^6 RBCs mean ± SD: 0.4 ± 0.2 per 10^6 RBCs
  Number of CD59‐Neg RETs per 10^6 RETs mean ± SD: 0.9 ± 0.7 per 10^6 RETs
Male Sprague Dawley rats [1]; [9]
  %RETs mean ± SD: 3.1 ± 0.2%
  Number of CD59‐Neg RBCs per 10^6 RBCs mean ± SD: 0.5 ± 0.3 per 10^6 RBCs
  Number of CD59‐Neg RETs per 10^6 RETs mean ± SD: 1.2 ± 1.2 per 10^6 RETs
Male Sprague Dawley rats [1]; [10]
  %RETs mean ± SD: 2.7 ± 0.4%
  Number of CD59‐Neg RBCs per 10^6 RBCs mean ± SD: 0.4 ± 0.2 per 10^6 RBCs
  Number of CD59‐Neg RETs per 10^6 RETs mean ± SD: 0.7 ± 1.3 per 10^6 RETs
Male Sprague Dawley rats [1]; [11]
  %RETs mean ± SD: 3.3 ± 0.8%
  Number of CD59‐Neg RBCs per 10^6 RBCs mean ± SD: 0.4 ± 0.2 per 10^6 RBCs
  Number of CD59‐Neg RETs per 10^6 RETs mean ± SD: 2.0 ± 2.1 per 10^6 RETs
Male Sprague Dawley rats [1]; [12]
  %RETs mean ± SD: 4.8 ± 0.8 %
  Number of CD59‐Neg RBCs per 10^6 RBCs mean ± SD: 0.6 ± 0.2 per 10^6 RBCs
  Number of CD59‐Neg RETs per 10^6 RETs mean ± SD: 1.8 ± 2.4 per 10^6 RETs
Male Sprague Dawley rats [1]; [13]
  %RETs mean ± SD: 3.3 ± 0.4%
  Number of CD59‐Neg RBCs per 10^6 RBCs mean ± SD: 0.8 ± 0.4 per 10^6 RBCs
  Number of CD59‐Neg RETs per 10^6 RETs mean ± SD: 1.5 ± 1.8 per 10^6 RETs
Male Sprague Dawley rats [1]; [14]
  %RETs mean ± SD: 2.9 ± 0.3%
  Number of CD59‐Neg RBCs per 10^6 RBCs mean ± SD: 1.1 ± 1.1 per 10^6 RBCs
  Number of CD59‐Neg RETs per 10^6 RETs mean ± SD: 2.0 ± 2.1 per 10^6 RETs
Male Sprague Dawley rats [1]; [15]
  %RETs mean ± SD: 3.6 ± 0.8%
  Number of CD59‐Neg RBCs per 10^6 RBCs mean ± SD: 0.4 ± 0.2 per 10^6 RBCs
  Number of CD59‐Neg RETs per 10^6 RETs mean ± SD: 1.2 ± 0.5 per 10^6 RETs
Male Sprague Dawley rats [1]; [16]
  %RETs mean ± SD: 5.7 ± 0.4 %
  Number of CD59‐Neg RBCs per 10^6 RBCs mean ± SD: 2.9 ± 6.1 per 10^6 RBCs
  Number of CD59‐Neg RETs per 10^6 RETs mean ± SD: 11.3 ± 26.2 per 10^6 RETs
Male Sprague Dawley rats [1]; [17]
  %RETs mean ± SD: 3.3 ± 0.6%
  Number of CD59‐Neg RBCs per 10^6 RBCs mean ± SD: 32.4 ± 78.4 per 10^6 RBCs
  Number of CD59‐Neg RETs per 10^6 RETs mean ± SD: 40.3 ± 98.3 per 10^6 RETs
Male Sprague Dawley rats [1]; [18]
  %RETs mean ± SD: 2.4 ± 0.2 %
  Number of CD59‐Neg RBCs per 10^6 RBCs mean ± SD: 38.5 ± 92.8 per 10^6 RBCs
  Number of CD59‐Neg RETs per 10^6 RETs mean ± SD: 15.1 ± 36.2 per 10^6 RETs
Male Sprague Dawley rats [1]; [19]
  %RETs mean ± SD: 3.2 ± 0.8%
  Number of CD59‐Neg RBCs per 10^6 RBCs mean ± SD: 0.3 ± 0.1 per 10^6 RBCs
  Number of CD59‐Neg RETs per 10^6 RETs mean ± SD: 1.2 ± 0.6 per 10^6 RETs
Male Sprague Dawley rats [1]; 250-2,000 mg/kg/day, 3-Day, 2-Week and 1-Month Studies
  Mutagenicity in the rat Pig‐a model (conclusion): not mutagenic
Male Sprague Dawley rats [2]; after 1-month recovery period
  Rats with minimal remnants of treatment‐related liver changes: 2/6
Male Sprague Dawley rats [2]; after 1 month
  Rats with minimal to slight liver changes in the centrilobular region: 9/16
Male Sprague Dawley rats [2]; after 1 week
  Rats with minimal to slight liver changes in the centrilobular region: 5/5
